Reference: patent US20210253598A1, “ARYL ANNULATED MACROCYCLIC INDOLE DERIVATIVES” (priority 2017, published 2021)
Counter-ions that a name gives are not always drawn. Like-named read-outs stand apart in the source and are kept apart here.

Columns and labels:
[1] = biological target: BCL-XL (Homo sapiens, UniProt Q07817); assay: Protein-protein interaction assay BCL-XL/Bad BH3 peptide, TR-FRET (BCL-XL assay, Assay 2); assay type: binding; conditions: His-BCL-XL / Bad BH3 peptide, median
[2] = test system: SUDHL5; assay: Anti-proliferative effect in SUDHL5 cells, CellTiter-Glo (Assay 7); assay type: cell-based; conditions: Homo sapiens, SU-DHL-5, 72 h, SUDHL5, 72 hours incubation, CellTiter-Glo; median; read-out: Antiproli SUDHL5 [M] (median)
Summary of the method: (§1)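 Cells plated and incubated overnight at 37° C, then exposed to compound for 72 hours. Viability read as CellTiter-Glo luminescence, with a day 0 plate as time-zero reference. IC50 calculated with day 0 values and DMSO control values as references.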

[3] = test system: SUDHL5; assay: Induction of caspase-3/7 activity in SUDHL5 cells (Assay 4); assay type: cell-based; conditions: SUDHL5, 3 hours treatment, Caspase-Glo 3/7, median, read-out: Caspase SUDHL5 [M] (median)
Summary of the method: (§2)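 DLBCL lines SUDHL5 and SUDHL10 were treated with compound for 3 h at 37 °C. Caspase-3/7 activity was then read by Caspase-Glo 3/7 luminescence after 1 h at 37 °C. Medium-only background was subtracted and values were normalized to the mean of DMSO-treated cells.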

[4] = test system: SUDHL10; assay: Induction of caspase-3/7 activity in SUDHL10 cells (Assay 4); assay type: cell-based; conditions: SUDHL10, 3 hours treatment, Caspase-Glo 3/7, median, read-out: Caspase SUDHL10 [M] (median)
Summary of the method: as §2

[5] = test system: A2780; assay: Anti-proliferative effect in A2780 cells, CellTiter-Glo (Assay 7); assay type: cell-based; conditions: A2780, 72 hours incubation, CellTiter-Glo, several values per example, read-out: Antiproli A2780
Summary of the method: as §1

[6] = test system: SUDHL10; assay: Induction of cytotoxicity in SUDHL10 cells, CellTiter-Glo (Assay 6); assay type: cell-based
Summary of the method: (§3)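 Cells plated and held overnight at 37° C in a humidified incubator, then compound-treated for 5 hours at 37° C. Viability read by CellTiter-Glo luminescence after 15 minutes shaking at room temperature; cell-free medium served as control.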

[7] = biological target: BCL-2 (Homo sapiens, UniProt P10415); assay: Protein-protein interaction assay BCL-2/Bad BH3 peptide, TR-FRET (BCL-2 assay, Assay 3); assay type: binding; conditions: His-BCL-2 / Bad BH3 peptide, median
Chain of BCL-2 (P10415 1-211): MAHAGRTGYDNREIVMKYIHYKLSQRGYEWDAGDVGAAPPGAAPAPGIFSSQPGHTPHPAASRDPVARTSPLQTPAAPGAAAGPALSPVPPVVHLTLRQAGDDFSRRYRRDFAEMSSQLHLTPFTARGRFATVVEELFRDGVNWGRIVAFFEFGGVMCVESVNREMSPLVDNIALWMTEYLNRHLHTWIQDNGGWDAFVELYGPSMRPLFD

[8] = test system: SUDHL5; assay: Induction of cytotoxicity in SUDHL5 cells, CellTiter-Glo (Assay 6); assay type: cell-based
Summary of the method: as §3

[9] = biological target: MCL-1 (Homo sapiens, UniProt Q07820, K194A/K197A/R201A); assay: Protein-protein interaction assay MCL-1/Noxa BH3 peptide, TR-FRET (MCL-1 assay, Assay 1); assay type: binding; conditions: MCL-1 Assay [M] (median), MBP-MCL-1 / Noxa BH3 peptide
Chain of MCL-1 (Q07820 173-321 K194A/K197A/R201A, looked up): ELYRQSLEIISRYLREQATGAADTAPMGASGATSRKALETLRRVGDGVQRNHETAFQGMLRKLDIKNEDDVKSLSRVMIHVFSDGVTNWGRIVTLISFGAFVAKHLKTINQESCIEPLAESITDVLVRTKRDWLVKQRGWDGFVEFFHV
Summary of the method: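 Human MBP-fused MCL-1 (aa 173-321; 1 nM final) was pre-incubated 10 min at 22 °C with compound in pH 7 Tris buffer containing NaCl, KF, Tween-20, DTT and BGG. Displacement of biotinylated Noxa BH3 peptide was read by TR-FRET (anti-MBP-Eu cryptate/streptavidin-XL665) after 1 h at 22 °C plus overnight at 4 °C. IC50 came from four-parameter fits against DMSO controls.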

[10] = test system: MV-4-11; assay: Anti-proliferative effect in MV-4-11 cells, CellTiter-Glo (Assay 7); assay type: cell-based; conditions: MV-4-11, 72 hours incubation, CellTiter-Glo, several values per example, read-out: Antiproli MV-4-11
Summary of the method: as §1

[11] = Homo sapiens, SU-DHL10, 5 h, SUDHL10, 5 hours incubation, median, read-out: Cytotox SUDHL10 [M] (median)
[12] = Homo sapiens, SU-DHL-5, 5 h, SUDHL5, 5 hours incubation, median, read-out: Cytotox SUDHL5 [M] (median)

Chain of BCL-XL (Q07817 1-212): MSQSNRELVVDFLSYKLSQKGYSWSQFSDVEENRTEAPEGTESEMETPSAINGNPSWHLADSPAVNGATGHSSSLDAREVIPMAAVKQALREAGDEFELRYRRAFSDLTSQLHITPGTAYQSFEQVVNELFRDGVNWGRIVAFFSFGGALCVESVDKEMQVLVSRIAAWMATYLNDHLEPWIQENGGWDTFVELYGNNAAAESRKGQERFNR

Compound | IC50 [1] [µM] | IC50 [2] [M] | EC50 ([3]; Homo sapiens, SU-DHL-5, 3 h) [M] | EC50 ([4]; Homo sapiens, SU-DHL10, 3 h) [M] | IC50 [5] [µM] | IC50 ([5]; Homo sapiens, A2780, 72 h) [µM] | IC50 [7] [µM] | IC50 [9] [M] | IC50 ([10]; Homo sapiens, MV4-11, 72 h) [µM] | IC50 [10] [µM] | IC50 [6, 11] [M] | IC50 [8, 12] [M] | EC50 [3] [M] | EC50 [4] [M] | IC50 ([6]; read-out: Cytotox SUDHL10 [M] (median), SUDHL10, 5 hours incubation) | IC50 ([8]; read-out: Cytotox SUDHL5 [M] (median), SUDHL5, 5 hours incubation)
Cc1c2c(nn1C)COCc1ccccc1Cn1c(C(=O)O)c(CCCOc3cccc4c3CCCC4)c3ccc(F)c-2c31 (racemic) [Example 62, (rac)-15-Fluoro-13,14-dimethyl-1-(3-((5,6,7,8-tetrahydronaphthalen-1-yl)oxy)propyl)-4,9,11,13-tetrahydrobenzo[3,4]pyrazolo[4′,3′:9,10][1,6]oxaazacycloundecino[8,7,6-hi]indole-2-carboxylic Acid] | > 20 | 3.1e-06 | 3.2e-06 | 1e-05 |  | 13.9 | > 20 | 2.6e-09 | 6.36 |  | 5.2e-06 | 2.9e-06 |  |  |  | 
Cc1c2c(nn1C)COCc1ccccc1Cn1c(C(=O)O)c(CCCOc3ccc(F)c4ccccc34)c3ccc(F)c-2c31 (racemic) [Example 63, (rac)-15-Fluoro-1-(3-((4-fluoronaphthalen-1-yl)oxy)propyl)-13,14-dim4,9,11,13-tetrahydrobenzo[3,4]pyrazolo[4′,3′:9,10][1,6]oxaazacycloundecino[8,7,6-hi]indole-2-carboxylic Acid] | > 20 | 6.2e-06 | 9.3e-06 | 2.3e-05 |  | 19.7 | 18.1 | 4.5e-09 | > 33 |  | 1.5e-05 | 8.3e-06 |  |  |  | 
CCc1c2c(nn1C)COCc1ccccc1Cn1c(C(=O)O)c(CCCOc3ccc(F)c4ccccc34)c3ccc(F)c-2c31 (racemic) [Example 76, (rac)-14-Ethyl-15-fluoro-1-(3-((4-fluoronaphthalen-1-yl)oxy)propyl)-13-methyl-4,9,11,13-tetrahydrobenzo[3,4]pyrazolo[4′,3′:9,10][1]oxa[6]azacycloundecino[8,7,6-hi]indole-2-carboxylic Acid] | > 20 | 3.7e-06 | 3.3e-06 | 1.3e-05 | 25 | 16.6 | 15.8 | 3.1e-09 | 9.05 | 10.1 | 9.4e-06 | 3.4e-06 |  |  |  | 
Cc1c2c(nn1C)CNCc1ccccc1Cn1c(C(=O)O)c(CCCOc3cccc4ccccc34)c3cccc-2c31 (single isomer, unassigned; enantiomer 1) [Example 12, 4,5-Dimethyl-17-[3-(naphthalen-1-yloxy)propyl]-7,8,9,14-tetrahydro-5H-indolo[1,7-bc]pyrazolo-[4,3-e][2,8]benzodiazacycloundecine-16-carboxylic acid-Trifluoroacetic Acid Salt (Enantiomer 1)] | > 20 |  |  |  |  |  | > 20 | 2.9e-09 |  |  |  |  | 2.4e-06 | 4.9e-06 | 5e-06 | 1.9e-06

Continued, in another order:

IC50 [1] [µM] | IC50 [2] [M] | EC50 ([3]; Homo sapiens, SU-DHL-5, 3 h) [M] | EC50 ([4]; Homo sapiens, SU-DHL10, 3 h) [M] | IC50 [5] [µM] | IC50 ([5]; Homo sapiens, A2780, 72 h) [µM] | IC50 [7] [µM] | IC50 [9] [M] | IC50 ([10]; Homo sapiens, MV4-11, 72 h) [µM] | IC50 [10] [µM] | Compound | IC50 [6, 11] [M] | IC50 [8, 12] [M] | EC50 [3] [M] | EC50 [4] [M] | IC50 ([6]; read-out: Cytotox SUDHL10 [M] (median), SUDHL10, 5 hours incubation) | IC50 ([8]; read-out: Cytotox SUDHL5 [M] (median), SUDHL5, 5 hours incubation)
> 20 | 5.1e-06 | 4.3e-06 | 1.8e-05 | 20.6 | > 33 | > 20 |  |  |  | Cc1c2c(nn1C)COCc1nc3ccccc3nc1Cn1c(C(=O)O)c(CCCOc3cccc4ccccc34)c3cccc-2c31 (racemic) [Example 10, (rac)-4,5-Dimethyl-19-[3-(naphthalen-1-yloxy)propyl]-5,7,9,16-tetrahydroindolo[1′,7′:6,7,8]-pyrazolo[4′,3′:9,10][1,6]oxazacycloundecino[3,4-b]quinoxaline-18-carboxylic Acid] | 1.4e-05 | 5.6e-06 |  |  |  | 
> 20 | 2.1e-06 | 2.5e-06 | 5.8e-06 |  | 22.8 | > 20 | 2.1e-09 | 3.57 |  | Cc1c2c(nn1C)COCc1ccccc1Cn1c(C(=O)O)c(CCCOc3cccc4c3CCC4)c3ccc(F)c-2c31 (racemic) [Example 61, (rac)-1-(3-((2,3-Dihydro-1H-inden-4-yl)oxy)propyl)-15-fluoro-13,14-dimethyl-4,9,11,13-tetrahydrobenzo[3,4]pyrazolo[4′,3′:9,10][1,6]oxaazacycloundecino[8,7,6-hi]indole-2-carboxylic Acid] | 5e-06 | 2.3e-06 |  |  |  | 
